Numbers after ± are expanded uncertainties.
What was measured:
[1] = for mass density / kinematic viscosity: 101.33 kPa, Liquid; for mass density: Vibrating tube method; for surface tension liquid-gas / kinematic viscosity: Surface laser light scattering (SLLS)
[2] = refractive index (Na D-line) (dimensionless); details: 101.33 kPa, Liquid, Standard Abbe refractometry

CCCCCC(=O)OC [methyl hexanoate]
Details | kinematic viscosity [m2/s] | mass density [kg/m3] | refractive index | surface tension liquid-gas [mN/m]
[1], 293.15 K | – | 884.44 ± 1.8 | – | –
[1], 298.14 K | 1.02e-06 ± 3.4e-08 | – | – | 24.58 ± 0.52
[1], 303.15 K | – | 874.79 ± 1.8 | – | –
[1], 313.15 K | – | 865.12 ± 1.7 | – | –
[1], 323.15 K | – | 855.4 ± 1.7 | – | –
[1], 323.17 K | 7.49e-07 ± 2.5e-08 | – | – | 22.44 ± 0.16
[1], 333.15 K | – | 845.68 ± 1.7 | – | –
[1], 343.15 K | – | 835.87 ± 1.7 | – | –
[1], 348.18 K | 5.74e-07 ± 2.3e-08 | – | – | 20.35 ± 0.09
[1], 353.15 K | – | 825.97 ± 1.7 | – | –
[1], 363.15 K | – | 815.95 ± 1.6 | – | –
[1], 373.15 K | – | 805.49 ± 1.6 | – | –
[1], 373.21 K | 4.53e-07 ± 1.8e-08 | – | – | 18.03 ± 0.15
[1], 383.15 K | – | 795.6 ± 1.6 | – | –
[1], 393.15 K | – | 785.23 ± 1.6 | – | –
[1], 398.2 K | 3.74e-07 ± 1.6e-08 | – | – | 15.63 ± 0.08
[1], 403.15 K | – | 774.67 ± 1.6 | – | –
[1], 413.15 K | – | 763.86 ± 1.5 | – | –
[1], 423.17 K | 3.25e-07 ± 1.5e-08 | – | – | 13.36 ± 0.1
[1], 448.17 K | 2.82e-07 ± 1.5e-08 | – | – | 11.18 ± 0.26
[2], 278.15 K | – | – | 1.41212 ± 0.0005 | –
[2], 283.15 K | – | – | 1.40984 ± 0.0005 | –
[2], 288.15 K | – | – | 1.40757 ± 0.0005 | –
[2], 293.15 K | – | – | 1.40529 ± 0.0005 | –
[2], 298.15 K | – | – | 1.403 ± 0.0005 | –
[2], 303.15 K | – | – | 1.4007 ± 0.0005 | –
[2], 308.15 K | – | – | 1.39841 ± 0.0005 | –
[2], 313.15 K | – | – | 1.3961 ± 0.0005 | –
[2], 318.15 K | – | – | 1.39373 ± 0.0005 | –
[2], 323.15 K | – | – | 1.39136 ± 0.0005 | –
[2], 328.15 K | – | – | 1.38902 ± 0.0005 | –
[2], 333.15 K | – | – | 1.38667 ± 0.0005 | –
[2], 338.15 K | – | – | 1.38432 ± 0.0005 | –
[2], 343.15 K | – | – | 1.38169 ± 0.0005 | –
[2], 348.15 K | – | – | 1.37961 ± 0.0005 | –
[2], 353.15 K | – | – | 1.37725 ± 0.0005 | –
[2], 358.15 K | – | – | 1.3749 ± 0.0005 | –

CCCCCCCC(=O)OC [methyl octanoate]
Details | kinematic viscosity [m2/s] | mass density [kg/m3] | refractive index | surface tension liquid-gas [mN/m]
[1], 293.15 K | – | 876.58 ± 1.8 | – | –
[1], 298.19 K | 1.51e-06 ± 4.4e-08 | – | – | 24.65 ± 0.28
[1], 303.15 K | – | 866.75 ± 1.7 | – | –
[1], 313.15 K | – | 858.95 ± 1.7 | – | –
[1], 323.15 K | – | 850.13 ± 1.7 | – | –
[1], 323.21 K | 1.09e-06 ± 4.4e-08 | – | – | 23.02 ± 0.38
[1], 333.15 K | – | 841.3 ± 1.7 | – | –
[1], 343.15 K | – | 832.44 ± 1.7 | – | –
[1], 348.23 K | 8.31e-07 ± 2.8e-08 | – | – | 21.61 ± 0.15
[1], 353.15 K | – | 823.54 ± 1.6 | – | –
[1], 363.15 K | – | 814.59 ± 1.6 | – | –
[1], 373.15 K | – | 805.56 ± 1.6 | – | –
[1], 373.28 K | 6.5e-07 ± 2.3e-08 | – | – | 19.62 ± 0.16
[1], 383.15 K | – | 796.52 ± 1.6 | – | –
[1], 393.15 K | – | 787.36 ± 1.6 | – | –
[1], 398.31 K | 5.19e-07 ± 2e-08 | – | – | 17.62 ± 0.28
[1], 403.15 K | – | 778.1 ± 1.6 | – | –
[1], 413.15 K | – | 768.72 ± 1.5 | – | –
[1], 423.15 K | – | 759.27 ± 1.5 | – | –
[1], 423.31 K | 4.3e-07 ± 1.8e-08 | – | – | 15.47 ± 0.05
[1], 433.15 K | – | 749.61 ± 1.5 | – | –
[1], 443.15 K | – | 739.56 ± 1.5 | – | –
[1], 448.33 K | 3.59e-07 ± 1.8e-08 | – | – | 13.44 ± 0.3
[1], 453.15 K | – | 729.82 ± 1.5 | – | –
[2], 278.15 K | – | – | 1.42385 ± 0.00049 | –
[2], 283.15 K | – | – | 1.42168 ± 0.00049 | –
[2], 288.15 K | – | – | 1.41951 ± 0.00049 | –
[2], 293.15 K | – | – | 1.41734 ± 0.00049 | –
[2], 298.15 K | – | – | 1.41516 ± 0.00049 | –
[2], 303.15 K | – | – | 1.41298 ± 0.00049 | –
[2], 308.15 K | – | – | 1.41079 ± 0.00049 | –
[2], 313.15 K | – | – | 1.40854 ± 0.00049 | –
[2], 318.15 K | – | – | 1.40629 ± 0.00049 | –
[2], 323.15 K | – | – | 1.40405 ± 0.00049 | –
[2], 328.15 K | – | – | 1.40183 ± 0.00049 | –
[2], 333.15 K | – | – | 1.39965 ± 0.00049 | –
[2], 338.15 K | – | – | 1.3975 ± 0.00049 | –
[2], 343.15 K | – | – | 1.39535 ± 0.00049 | –
[2], 348.15 K | – | – | 1.3932 ± 0.00049 | –
[2], 353.15 K | – | – | 1.39104 ± 0.00049 | –
[2], 358.15 K | – | – | 1.38886 ± 0.00049 | –

CCCCCCCCCCCCCC(=O)OC [methyl tetradecanoate]
Details | kinematic viscosity [m2/s] | mass density [kg/m3] | refractive index | surface tension liquid-gas [mN/m]
[1], 293.15 K | – | 867.06 ± 1.7 | – | –
[1], 303.15 K | – | 859.28 ± 1.7 | – | –
[1], 313.15 K | – | 851.61 ± 1.7 | – | –
[1], 323.15 K | – | 843.97 ± 1.7 | – | –
[1], 323.17 K | 2.41e-06 ± 7.6e-08 | – | – | 23.37 ± 0.83
[1], 333.15 K | – | 836.37 ± 1.7 | – | –
[1], 343.15 K | – | 828.8 ± 1.7 | – | –
[1], 348.16 K | 1.76e-06 ± 1.1e-07 | – | – | 21.83 ± 0.42
[1], 353.15 K | – | 821.26 ± 1.6 | – | –
[1], 363.15 K | – | 813.71 ± 1.6 | – | –
[1], 373.15 K | – | 806.17 ± 1.6 | – | –
[1], 373.18 K | 1.38e-06 ± 7.4e-08 | – | – | 20.78 ± 0.56
[1], 383.15 K | – | 798.64 ± 1.6 | – | –
[1], 393.15 K | – | 791.09 ± 1.6 | – | –
[1], 398.2 K | 1.08e-06 ± 3.3e-08 | – | – | 19.71 ± 0.09
[1], 403.15 K | – | 783.52 ± 1.6 | – | –
[1], 413.15 K | – | 775.91 ± 1.6 | – | –
[1], 423.15 K | – | 768.24 ± 1.5 | – | –
[1], 423.17 K | 8.63e-07 ± 2.8e-08 | – | – | 18.31 ± 0.15
[1], 433.15 K | – | 760.61 ± 1.5 | – | –
[1], 443.15 K | – | 752.95 ± 1.5 | – | –
[1], 448.17 K | 7e-07 ± 2.5e-08 | – | – | 16.82 ± 0.09
[1], 453.15 K | – | 745.22 ± 1.5 | – | –
[2], 293.15 K | – | – | 1.43704 ± 0.00049 | –
[2], 298.15 K | – | – | 1.43499 ± 0.00049 | –
[2], 303.15 K | – | – | 1.43296 ± 0.00049 | –
[2], 308.15 K | – | – | 1.43093 ± 0.00049 | –
[2], 313.15 K | – | – | 1.4289 ± 0.00049 | –
[2], 318.15 K | – | – | 1.42681 ± 0.00049 | –
[2], 323.15 K | – | – | 1.42472 ± 0.00049 | –
[2], 328.15 K | – | – | 1.42254 ± 0.00049 | –
[2], 333.15 K | – | – | 1.4202 ± 0.00049 | –
[2], 338.15 K | – | – | 1.41783 ± 0.00049 | –
[2], 343.15 K | – | – | 1.4163 ± 0.00049 | –
[2], 348.15 K | – | – | 1.41474 ± 0.00049 | –
[2], 353.15 K | – | – | 1.41282 ± 0.00049 | –
[2], 358.15 K | – | – | 1.41083 ± 0.00049 | –

Source: the NIST ThermoML archive (doi:10.1016/j.jct.2019.02.025)
